pIC50: −log10 of the molar value. ≈ marks a conversion by molar mass, not a printed value.
System: not listed separately
Test: Cytotoxicity against human MESSA cells assessed as cell viability after 72 hrs by CellTiter-Glo luminescent assay
Type: functional, cell-based
Details: MES-SA
For `CC(C)C[C@H](NC(=O)c1cc(Cn2cncn2)on1)C(=O)N[C@@H](Cc1ccccc1)C(=O)N[C@@H](CC(C)C)C(=O)[C@@]1(C)CO1`, the pIC50 was 7.46. In the case of `COC[C@H](NC(=O)c1cc(C)on1)C(=O)N[C@@H](COC)C(=O)N[C@@H](CC(C)C)C(=O)[C@@]1(C)CO1`, the pIC50 was 7.66. `COC[C@H](NC(=O)c1cc(C)on1)C(=O)N[C@@H](CC(C)C)C(=O)N[C@@H](CC(C)C)C(=O)[C@@]1(C)CO1` showed a pIC50 of 7.35. In the case of `COC[C@H](NC(=O)c1cc(C)on1)C(=O)N[C@@H](Cc1ccsc1)C(=O)N[C@@H](CC(C)C)C(=O)[C@@]1(C)CO1`, the pIC50 was 7.60. In the case of `COC[C@H](NC(=O)c1cc(C)on1)C(=O)N[C@H](C(=O)N[C@@H](CC(C)C)C(=O)[C@@]1(C)CO1)C(C)C`, the pIC50 was 7.24.

System: Mus musculus
Test: Inhibition of chymotrypsin-like activity of 20S proteasome in BALB/c mouse adrenal gland at 20 mg/kg, po after 1 hr
Type: functional
Parameters: scale not given: the % may be the effect or the level left
Details: not given
With `COC[C@H](NC(=O)c1cc(C)on1)C(=O)N[C@@H](COC)C(=O)N[C@@H](CC(C)C)C(=O)[C@@]1(C)CO1` the Activity was 9%. In the case of `COC[C@H](NC(=O)c1cc(C)on1)C(=O)N[C@@H](CC(C)C)C(=O)N[C@@H](CC(C)C)C(=O)[C@@]1(C)CO1`, the Activity was 37%. Compound `COC[C@H](NC(=O)c1cc(C)on1)C(=O)N[C@@H](Cc1ccsc1)C(=O)N[C@@H](CC(C)C)C(=O)[C@@]1(C)CO1` has an Activity of 117%. Compound `COC[C@H](NC(=O)c1cc(C)on1)C(=O)N[C@H](C(=O)N[C@@H](CC(C)C)C(=O)[C@@]1(C)CO1)C(C)C` has an Activity of 12%.

System: Mus musculus
Test: Inhibition of chymotrypsin-like activity of 20S proteasome in BALB/c mouse adrenal gland 40 mg/kg, po after 1 hr
Type: functional
Parameters: scale not given: the % may be the effect or the level left
Details: not given
With `CC(C)C[C@H](NC(=O)c1cc(Cn2cncn2)on1)C(=O)N[C@@H](Cc1ccccc1)C(=O)N[C@@H](CC(C)C)C(=O)[C@@]1(C)CO1` the Activity was 105%.

Species on record: Homo sapiens
Test: Ratio of Kinact to Ki for chymotrypsin-like activity of human 26S proteasome by spectrophotometry
Parameters: unit not given here
Details: not given
In the case of `COC[C@H](NC(=O)c1cc(C)on1)C(=O)N[C@@H](COC)C(=O)N[C@@H](CC(C)C)C(=O)[C@@]1(C)CO1`, the Ratio was 31800.

System: not listed separately
Test: Metabolic stability in human liver microsomes assessed as extraction ratio at 1 uM
Type: ADME, Microsome
Details: not given
Compound `COC[C@H](NC(=O)c1cc(C)on1)C(=O)N[C@@H](COC)C(=O)N[C@@H](CC(C)C)C(=O)[C@@]1(C)CO1` has a hepatic extraction ratio at 1 µM of 0.54 dimensionless ratio. `COC[C@H](NC(=O)c1cc(C)on1)C(=O)N[C@@H](CC(C)C)C(=O)N[C@@H](CC(C)C)C(=O)[C@@]1(C)CO1` gave a hepatic extraction ratio at 1 µM of 0.83 dimensionless ratio. With `COC[C@H](NC(=O)c1cc(C)on1)C(=O)N[C@@H](Cc1ccsc1)C(=O)N[C@@H](CC(C)C)C(=O)[C@@]1(C)CO1` the hepatic extraction ratio at 1 µM was 0.87 dimensionless ratio. Compound `COC[C@H](NC(=O)c1cc(C)on1)C(=O)N[C@H](C(=O)N[C@@H](CC(C)C)C(=O)[C@@]1(C)CO1)C(C)C` has a hepatic extraction ratio at 1 µM of 0.63 dimensionless ratio.

System: not listed separately
Test: Metabolic stability in mouse liver microsomes assessed as extraction ratio at 1 uM
Type: ADME, Microsome
Details: not given
Compound `COC[C@H](NC(=O)c1cc(C)on1)C(=O)N[C@@H](COC)C(=O)N[C@@H](CC(C)C)C(=O)[C@@]1(C)CO1` has a hepatic extraction ratio at 1 µM of 0.67 dimensionless ratio. `COC[C@H](NC(=O)c1cc(C)on1)C(=O)N[C@@H](CC(C)C)C(=O)N[C@@H](CC(C)C)C(=O)[C@@]1(C)CO1` showed a hepatic extraction ratio at 1 µM of 0.45 dimensionless ratio. In the case of `COC[C@H](NC(=O)c1cc(C)on1)C(=O)N[C@@H](Cc1ccsc1)C(=O)N[C@@H](CC(C)C)C(=O)[C@@]1(C)CO1`, the hepatic extraction ratio at 1 µM was 0.95 dimensionless ratio. With `COC[C@H](NC(=O)c1cc(C)on1)C(=O)N[C@H](C(=O)N[C@@H](CC(C)C)C(=O)[C@@]1(C)CO1)C(C)C` the hepatic extraction ratio at 1 µM was 0.79 dimensionless ratio.

System: not listed separately
Test: Inhibition of chymotrypsin-like activity of human 20S proteasome beta 5 subunit by proteasome active site ELISA
Details: not given
Compound `COC[C@H](NC(=O)c1cc(C)on1)C(=O)N[C@@H](COC)C(=O)N[C@@H](CC(C)C)C(=O)[C@@]1(C)CO1` has a pIC50 of 7.77.

System: not listed separately
Test: Inhibition of chymotrypsin-like activity of 20S proteasome in human MOLT4 cells after 1 hr by […]
Type: cell-based
Details: MOLT-4, 1 h
With `CC(C)C[C@H](NC(=O)c1cc(Cn2cncn2)on1)C(=O)N[C@@H](Cc1ccccc1)C(=O)N[C@@H](CC(C)C)C(=O)[C@@]1(C)CO1` the pIC50 was 7.21. For `COC[C@H](NC(=O)c1cc(C)on1)C(=O)N[C@@H](COC)C(=O)N[C@@H](CC(C)C)C(=O)[C@@]1(C)CO1`, the pIC50 was 7.32. `COC[C@H](NC(=O)c1cc(C)on1)C(=O)N[C@@H](CC(C)C)C(=O)N[C@@H](CC(C)C)C(=O)[C@@]1(C)CO1` showed a pIC50 of 7.39. Compound `COC[C@H](NC(=O)c1cc(C)on1)C(=O)N[C@@H](Cc1ccsc1)C(=O)N[C@@H](CC(C)C)C(=O)[C@@]1(C)CO1` has a pIC50 of 7.34. Work on `COC[C@H](NC(=O)c1cc(C)on1)C(=O)N[C@H](C(=O)N[C@@H](CC(C)C)C(=O)[C@@]1(C)CO1)C(C)C` yielded a pIC50 of 6.83.

System: Mus musculus
Test: Inhibition of chymotrypsin-like activity of 20S proteasome in BALB/c mouse adrenal gland at 10 mg/kg, po after 1 hr
Type: functional
Parameters: scale not given: the % may be the effect or the level left
Details: not given
`COC[C@H](NC(=O)c1cc(C)on1)C(=O)N[C@@H](COC)C(=O)N[C@@H](CC(C)C)C(=O)[C@@]1(C)CO1` showed an Activity of 21%.

System: not listed separately
Test: Solubility in ethanol-PS80 citrate buffer at pH 3.5 by HPLC analysis
Type: physicochemical
Details: not given
For `CC(C)C[C@H](NC(=O)c1cc(Cn2cncn2)on1)C(=O)N[C@@H](Cc1ccccc1)C(=O)N[C@@H](CC(C)C)C(=O)[C@@]1(C)CO1`, the solubility was at least 1 mg/mL. With `COC[C@H](NC(=O)c1cc(C)on1)C(=O)N[C@@H](COC)C(=O)N[C@@H](CC(C)C)C(=O)[C@@]1(C)CO1` the solubility was 5.88 mg/mL (≈ 12.2 mM).

System: not listed separately
Test: Cytotoxicity against multidrug resistance transporter expressing doxorubicin resistant human MESSA cells assessed as cell viability after 72 hrs by CellTiter-Glo luminescent assay
Type: functional, cell-based
Details: MES-SA
`CC(C)C[C@H](NC(=O)c1cc(Cn2cncn2)on1)C(=O)N[C@@H](Cc1ccccc1)C(=O)N[C@@H](CC(C)C)C(=O)[C@@]1(C)CO1` gave a pIC50 of under 6.00. In the case of `COC[C@H](NC(=O)c1cc(C)on1)C(=O)N[C@@H](COC)C(=O)N[C@@H](CC(C)C)C(=O)[C@@]1(C)CO1`, the pIC50 was 6.84. `COC[C@H](NC(=O)c1cc(C)on1)C(=O)N[C@@H](CC(C)C)C(=O)N[C@@H](CC(C)C)C(=O)[C@@]1(C)CO1` showed a pIC50 of 6.44. In the case of `COC[C@H](NC(=O)c1cc(C)on1)C(=O)N[C@@H](Cc1ccsc1)C(=O)N[C@@H](CC(C)C)C(=O)[C@@]1(C)CO1`, the pIC50 was 6.74. For `COC[C@H](NC(=O)c1cc(C)on1)C(=O)N[C@H](C(=O)N[C@@H](CC(C)C)C(=O)[C@@]1(C)CO1)C(C)C`, the pIC50 was 6.20.

System: not listed separately
Test: Chemical stability in simulated intestinal fluid assessed as compound remaining at 4 uM after 15 mins
Type: physicochemical
Details: read-out: Stability
Compound `COC[C@H](NC(=O)c1cc(C)on1)C(=O)N[C@@H](COC)C(=O)N[C@@H](CC(C)C)C(=O)[C@@]1(C)CO1` has a remaining at 0.25 h, 4 µM of 70%. `COC[C@H](NC(=O)c1cc(C)on1)C(=O)N[C@@H](CC(C)C)C(=O)N[C@@H](CC(C)C)C(=O)[C@@]1(C)CO1` gave a remaining at 0.25 h, 4 µM of 90%. In the case of `COC[C@H](NC(=O)c1cc(C)on1)C(=O)N[C@@H](Cc1ccsc1)C(=O)N[C@@H](CC(C)C)C(=O)[C@@]1(C)CO1`, the remaining at 0.25 h, 4 µM was 90%. With `COC[C@H](NC(=O)c1cc(C)on1)C(=O)N[C@H](C(=O)N[C@@H](CC(C)C)C(=O)[C@@]1(C)CO1)C(C)C` the remaining at 0.25 h, 4 µM was 95%.

Target: T1, Proteasome subunit beta type-8 (Homo sapiens, UniProt P28062)
T1 sequence (P28062 whole entry): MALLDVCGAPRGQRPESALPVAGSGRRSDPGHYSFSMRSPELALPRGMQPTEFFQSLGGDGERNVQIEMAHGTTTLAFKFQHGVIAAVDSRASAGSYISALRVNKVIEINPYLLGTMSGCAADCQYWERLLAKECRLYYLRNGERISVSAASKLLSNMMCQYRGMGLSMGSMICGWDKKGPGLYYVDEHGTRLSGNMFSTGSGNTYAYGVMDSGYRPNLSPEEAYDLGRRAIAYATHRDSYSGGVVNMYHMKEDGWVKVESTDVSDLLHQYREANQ
Details: not given
In the case of `COC[C@H](NC(=O)c1cc(C)on1)C(=O)N[C@@H](COC)C(=O)N[C@@H](CC(C)C)C(=O)[C@@]1(C)CO1`, the pIC50 was 6.62.

System: not listed separately
Test: Inhibition of chymotrypsin-like activity of human 20S proteasome by spectrofluorimetry
Details: not given
For `CC(C)C[C@H](NC(=O)c1cc(Cn2cncn2)on1)C(=O)N[C@@H](Cc1ccccc1)C(=O)N[C@@H](CC(C)C)C(=O)[C@@]1(C)CO1`, the pIC50 was 7.89. In the case of `COC[C@H](NC(=O)c1cc(C)on1)C(=O)N[C@@H](COC)C(=O)N[C@@H](CC(C)C)C(=O)[C@@]1(C)CO1`, the pIC50 was 7.96. `COC[C@H](NC(=O)c1cc(C)on1)C(=O)N[C@@H](CC(C)C)C(=O)N[C@@H](CC(C)C)C(=O)[C@@]1(C)CO1` gave a pIC50 of 7.70. Compound `COC[C@H](NC(=O)c1cc(C)on1)C(=O)N[C@@H](Cc1ccsc1)C(=O)N[C@@H](CC(C)C)C(=O)[C@@]1(C)CO1` has a pIC50 of 8.04. In the case of `COC[C@H](NC(=O)c1cc(C)on1)C(=O)N[C@H](C(=O)N[C@@H](CC(C)C)C(=O)[C@@]1(C)CO1)C(C)C`, the pIC50 was 7.36.

— ChEMBL document CHEMBL1138457, “Design and synthesis of an orally bioavailable and selective peptide epoxyketone proteasome inhibitor (PR-047)” (J Med Chem, 2009)
